What was measured:
CDK4/Cyclin D1 = target: T1, CDK4/Cyclin D1 (Homo sapiens, UniProt P11802); assay: CDK inhibition assay (Scintillation Proximity Assay, GST-Retinoblastoma substrate); format: biochemical; conditions: in-vitro SPA kinase assay, CDK4/Cyclin D1, GST-Rb substrate; read-out: CDK4 inhibitory activity IC50
T1 construct: CDK4 amino acids 1–303; made in house; host or cells: Sf21 (Spodoptera frugiperda) insect cells, baculovirus co-infection, vector pVL1393
Method: The compounds were tested in an in vitro kinase assay in 96 well format using Scintillation Proximity Assay (SPA—obtained from Amersham) for measuring incorporation of [γ-33-P]-Adenosine Triphosphate into a test substrate (GST-Retinoblastoma). In each well was placed the compound to be tested (diluted in DMSO and water to correct concentrations) and in control wells either p16 as an inhibitor control or DMSO as a positive control.
Approximately 0.5 μl of CDK4/Cyclin D1 partially-purified enzyme (amount dependent on enzyme activity) diluted in 25 μl incubation buffer was added to each well then 20 μl of GST-Rb/ATP/ATP33 mixture (containing 0.5 μg GST-Rb and 0.2 μM ATP and 0.14 μCi [γ-33-P]-Adenosine Triphosphate), and the resulting mixture shaken gently, then incubated at room temperature for 60 minutes.
To each well was then added 150 μL stop solution containing (0.8 mg/well of Protein A-PVT SPA bead (Amersham)), 20 pM/well of Anti-Glutathione Transferase, Rabbit IgG (obtained from Molecular Probes), 61 mM EDTA and 50 mM HEPES pH 7.5 containing 0.05% sodium azide.
The plates were sealed with Topseal-S plate sealers, left for two hours then spun at 2500 rpm, 1124×g., for 5 minutes. The plates were read on a Topcount for 30 seconds per well. […]

[1] = target: T2, human Focal Adhesion Kinase (FAK) (Homo sapiens, UniProt Q05397); assay: FAK3 kinase inhibition assay (in vitro enzyme ELISA); format: biochemical; conditions: Poly (Glu, Ala, Tyr) substrate, read-out: FAK inhibitory activity IC50
T2 construct: FAK (full length human cDNA described by Andre et al); made in house; host or cells: Sf21 (Spodoptera frugiperda) insect cells, baculovirus (pFastbac 1)
T2 sequence (Q05397 whole entry): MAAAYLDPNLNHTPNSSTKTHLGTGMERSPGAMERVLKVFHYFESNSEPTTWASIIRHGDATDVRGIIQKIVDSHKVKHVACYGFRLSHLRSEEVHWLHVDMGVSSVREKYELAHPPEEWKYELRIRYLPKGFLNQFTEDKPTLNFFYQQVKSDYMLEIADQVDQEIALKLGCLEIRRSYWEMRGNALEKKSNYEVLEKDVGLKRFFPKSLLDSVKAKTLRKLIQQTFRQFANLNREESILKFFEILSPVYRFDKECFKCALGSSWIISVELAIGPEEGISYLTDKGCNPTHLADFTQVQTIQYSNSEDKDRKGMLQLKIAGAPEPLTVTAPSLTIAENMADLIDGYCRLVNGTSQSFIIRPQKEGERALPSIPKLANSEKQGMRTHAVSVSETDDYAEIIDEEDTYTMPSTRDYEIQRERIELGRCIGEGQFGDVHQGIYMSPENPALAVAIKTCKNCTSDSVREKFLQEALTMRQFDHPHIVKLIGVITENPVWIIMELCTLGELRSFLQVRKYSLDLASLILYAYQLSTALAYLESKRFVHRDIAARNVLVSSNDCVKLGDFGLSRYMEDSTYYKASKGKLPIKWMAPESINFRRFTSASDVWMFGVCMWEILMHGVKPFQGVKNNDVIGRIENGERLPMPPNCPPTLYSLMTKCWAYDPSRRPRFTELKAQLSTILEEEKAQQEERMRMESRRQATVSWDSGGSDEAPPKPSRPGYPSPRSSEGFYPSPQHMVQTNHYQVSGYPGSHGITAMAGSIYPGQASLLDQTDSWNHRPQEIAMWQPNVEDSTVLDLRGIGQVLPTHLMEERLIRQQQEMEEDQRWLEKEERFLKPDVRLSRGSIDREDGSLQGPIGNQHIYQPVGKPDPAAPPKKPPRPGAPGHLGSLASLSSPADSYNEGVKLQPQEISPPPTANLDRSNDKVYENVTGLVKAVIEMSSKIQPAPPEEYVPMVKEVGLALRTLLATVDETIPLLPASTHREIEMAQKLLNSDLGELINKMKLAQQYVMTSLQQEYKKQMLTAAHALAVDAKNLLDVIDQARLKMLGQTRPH
Method: A stock of substrate solution was prepared from a random copolymer containing tyrosine, for example Poly (Glu, Ala, Tyr) 6:3:1 (Sigma P3899), stored as 1 mg/ml stock in PBS at −20° C. and diluted 1 in 500 with PBS for plate coating.
The liquid was then discarded and the wells were washed twice with PBST.

T1 sequence (P11802 whole entry, the tested form may be a part): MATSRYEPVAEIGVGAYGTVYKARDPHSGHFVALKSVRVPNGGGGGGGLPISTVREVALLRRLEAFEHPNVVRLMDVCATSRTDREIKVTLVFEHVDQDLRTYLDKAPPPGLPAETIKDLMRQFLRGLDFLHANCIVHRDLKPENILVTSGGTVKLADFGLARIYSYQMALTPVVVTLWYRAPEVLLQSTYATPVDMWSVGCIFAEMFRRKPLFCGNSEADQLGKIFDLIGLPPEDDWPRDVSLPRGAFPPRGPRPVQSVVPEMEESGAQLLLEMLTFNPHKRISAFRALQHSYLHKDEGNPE
T1 sequence (P24385 whole entry partner, the tested form may be a part): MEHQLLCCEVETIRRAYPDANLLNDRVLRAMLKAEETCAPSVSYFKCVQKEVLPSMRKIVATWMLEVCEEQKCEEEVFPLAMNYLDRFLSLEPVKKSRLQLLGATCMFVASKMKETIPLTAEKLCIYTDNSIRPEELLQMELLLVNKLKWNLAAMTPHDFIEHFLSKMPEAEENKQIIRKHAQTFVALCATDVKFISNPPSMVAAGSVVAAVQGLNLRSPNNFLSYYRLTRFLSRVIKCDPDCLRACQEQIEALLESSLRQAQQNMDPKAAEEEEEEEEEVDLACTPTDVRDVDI

| IC50 (CDK4/Cyclin D1) | IC50 [1] | Compound |
| --- | --- | --- |
| 530 nM | – | CN(C)CC(O)COc1ccc(Nc2nccc(Nc3cc(Cl)ccc3Cl)n2)cc1 (stereo not drawn) [Example 11, 2-{4-[3-(N,N-Dimethyl)amino-2-hydroxy-propoxy]anilino}-4-(2,5-dichloroanilino)pyrimidine] |
| 600 nM | 3300 nM | Cc1ccc(Nc2ccnc(Nc3ccc(OCC(O)CN(C)C)cc3)n2)c(Br)c1 (stereo not drawn) [Example 3, 2-{4-[3-(N,N-Dimethyl)amino-2-hydroxy-propoxy]anilino}-4-(2-bromo-4-methylanilino)pyrimidine] |

Source: US7176212B2, “2,4-diamino pyrimidine compounds having anti-cell proliferative activity” (AstraZeneca AB, priority 1998, dated 2007)
